Key:
[1] = target: T1, wt human TYK2, catalytic site (Homo sapiens, UniProt P29597); assay: HTRF KinEASE assay, TYK2; type: biochemical; conditions: 1 μM ATP; read-out: IC50, inhibitory activity toward TYK2
T1 construct: 2 nM wt human TYK2, catalytic site (SignalChem/CAN); purchased SignalChem/CAN
T1 sequence (P29597 897-1176 limits assumed): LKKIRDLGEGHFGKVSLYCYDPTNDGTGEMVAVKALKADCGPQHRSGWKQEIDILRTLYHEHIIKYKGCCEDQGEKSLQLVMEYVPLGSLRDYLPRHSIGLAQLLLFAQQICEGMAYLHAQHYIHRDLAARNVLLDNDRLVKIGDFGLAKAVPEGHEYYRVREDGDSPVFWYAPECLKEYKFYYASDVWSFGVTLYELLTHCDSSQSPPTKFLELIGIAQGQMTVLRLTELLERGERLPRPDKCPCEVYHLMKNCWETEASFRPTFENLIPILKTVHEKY
Procedure, shortened: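 2 nM wt human TYK2 catalytic domain with 1 μM biotinylated TK substrate and 1 μM ATP in 1× kinase buffer was incubated ≥30 min at room temperature. Antibody and streptavidin-XL665 were added, and HTRF emission ratios were read after 60 min.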

[2] = target: T2, wt human NUAK1, full length (Homo sapiens, UniProt O60285); assay: TR-FRET LanthaScreen Eu Kinase Binding Assay, NUAK1; conditions: 5 nM Kinase Tracer 236; read-out: IC50, inhibitory activity toward NUAK1
T2 construct: 8 nM wt human NUAK1, full length (ThermoFisher/USA); purchased ThermoFisher/USA
T2 sequence (O60285 1-661): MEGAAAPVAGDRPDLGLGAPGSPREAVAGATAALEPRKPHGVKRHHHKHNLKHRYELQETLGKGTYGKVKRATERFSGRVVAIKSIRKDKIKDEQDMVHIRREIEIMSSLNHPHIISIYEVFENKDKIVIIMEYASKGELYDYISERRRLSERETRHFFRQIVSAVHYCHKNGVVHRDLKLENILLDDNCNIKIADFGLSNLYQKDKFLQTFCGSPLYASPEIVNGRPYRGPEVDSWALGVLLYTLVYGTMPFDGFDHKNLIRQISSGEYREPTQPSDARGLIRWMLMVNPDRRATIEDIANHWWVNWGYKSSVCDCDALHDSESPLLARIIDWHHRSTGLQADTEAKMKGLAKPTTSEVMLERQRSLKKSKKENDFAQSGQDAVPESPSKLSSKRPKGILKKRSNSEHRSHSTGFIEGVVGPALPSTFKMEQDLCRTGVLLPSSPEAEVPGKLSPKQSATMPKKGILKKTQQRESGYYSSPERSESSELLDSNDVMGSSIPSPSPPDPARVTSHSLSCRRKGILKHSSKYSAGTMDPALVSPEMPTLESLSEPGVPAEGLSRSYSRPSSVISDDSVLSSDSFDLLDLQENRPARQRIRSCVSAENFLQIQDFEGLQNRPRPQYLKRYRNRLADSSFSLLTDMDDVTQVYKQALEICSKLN
Procedure, shortened: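 TR-FRET tracer-displacement binding with 8 nM full-length wild-type human NUAK1, 2 nM Eu-anti-His antibody and 5 nM Kinase Tracer 236 in 1× Kinase Buffer A (final). Compound, kinase/antibody and tracer incubated 1 h at room temperature; emission ratios analysed per kit protocol.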

| Compound | IC50 [1] | IC50 [2] |
| --- | --- | --- |
| Cc1ccc2c(c1)-c1[nH]ncc1NC(c1c(Cl)ccc(F)c1F)=N2 [Compound 186, 5-(6-chloro-2,3-difluorophenyl)-9-methyl-1,4-dihydrobenzo[d]pyrazolo[3,4-f][1,3]diazepine] | 100 to 1000 nM | 10 to 100 nM |
| Fc1cc(F)c(C2=Nc3ccc(Cl)cc3-c3n[nH]cc3N2)c(F)c1 [Compound 194, 9-chloro-5-(2,4,6-trifluorophenyl)-2,4-dihydrobenzo[d]pyrazolo[3,4-f][1,3]diazepine] | 100 to 1000 nM | 10 to 100 nM |
| O=C(O)c1cc2c(cc1Cl)-c1[nH]ncc1N=C(c1c(F)cccc1F)N2 [Compound 198, 9-chloro-5-(2,6-difluorophenyl)-1,6-dihydrobenzo[d]pyrazolo[3,4-f][1,3]diazepine-8-carboxylic acid] | 10 to 100 nM | 100 to 1000 nM |
| CCNC(=O)c1cc2c(cc1Cl)-c1n[nH]cc1N=C(c1c(F)cccc1F)N2 [Compound 200, 9-chloro-5-(2,6-difluorophenyl)-N-ethyl-2,6-dihydrobenzo[d]pyrazolo[3,4-f][1,3]diazepine-8-carboxamide] | 10 to 100 nM | 10 to 100 nM |
| CC(C)(C)NC(=O)c1cc2c(cc1Cl)-c1n[nH]cc1N=C(c1c(F)cccc1F)N2 [Compound 201, N-(tert-butyl)-9-chloro-5-(2,6-difluorophenyl)-2,6-dihydrobenzo[d]pyrazolo[3,4-f][1,3]diazepine-8-carboxamide] | 10 to 100 nM | 100 to 1000 nM |
| O=C(NCC(F)(F)F)c1cc2c(cc1Cl)-c1n[nH]cc1N=C(c1c(F)cccc1F)N2 [Compound 202, 9-chloro-5-(2,6-difluorophenyl)-N-(2,2,2-trifluoroethyl)-2,6-dihydrobenzo[d]pyrazolo[3,4-f][1,3]diazepine-8-carboxamide] | 10 to 100 nM | 10 to 100 nM |
| Fc1cc(F)c(C2=Nc3cn[nH]c3-c3cc(F)ccc3N2)c(F)c1 [Compound 203, 9-fluoro-5-(2,4,6-trifluorophenyl)-1,6-dihydrobenzo[d]pyrazolo[3,4-f][1,3]diazepine] | 100 to 1000 nM | 10 to 100 nM |
| Fc1cccc(F)c1C1=Nc2cn[nH]c2-c2cc3c(cc2N1)OCO3 [Compound 210, 5-(2,6-difluorophenyl)-1,6-dihydro-[1,3]dioxolo[4′,5′:4,5]benzo[1,2-d]pyrazolo[3,4-f][1,3]diazepine] | 10 to 100 nM | 10 to 100 nM |
| Fc1ccc2c(c1)-c1n[nH]cc1NC(c1c(F)cc(OC(F)(F)F)cc1F)=N2 [Compound 214, 5-(2,6-difluoro-4-(trifluoromethoxy)phenyl)-9-fluoro-2,4-dihydrobenzo[d]pyrazolo[3,4-f][1,3]diazepine] | 100 to 1000 nM | 100 to 1000 nM |
| Fc1ccc2c(c1)-c1[nH]ncc1N=C(c1c(F)cc(OC(F)F)cc1F)N2 [Compound 215, 5-(4-(difluoromethoxy)-2,6-difluorophenyl)-9-fluoro-1,6-dihydrobenzo[d]pyrazolo[3,4-f][1,3]diazepine] | 100 to 1000 nM | 10 to 100 nM |
| O=C(NCCF)c1cc2c(cc1F)-c1n[nH]cc1N=C(c1c(F)cccc1F)N2 [Compound 216, 5-(2,6-difluorophenyl)-9-fluoro-N-(2-fluoroethyl)-2,6-dihydrobenzo[d]pyrazolo[3,4-f][1,3]diazepine-8-carboxamide] | 10 to 100 nM | 10 to 100 nM |
| Cc1ccc2c(c1)-c1n[nH]cc1NC(c1c(F)ccc(C(F)(F)F)c1F)=N2 [Compound 217, 5-(2,6-difluoro-3-(trifluoromethyl)phenyl)-9-methyl-2,4-dihydrobenzo[d]pyrazolo[3,4-f][1,3]diazepine] | 100 to 1000 nM | 100 to 1000 nM |
| Fc1cc2c(cc1OC1CCOCC1)N=C(c1c(Cl)cccc1Cl)Nc1c[nH]nc1-2 [Compound 222, 5-(2,6-dichlorophenyl)-9-fluoro-8-((tetrahydro-2H-pyran-4-yl)oxy)-2,4-dihydrobenzo[d]pyrazolo[3,4-f][1,3]diazepine] | < 10 nM | 100 to 1000 nM |
| Fc1cc2c(cc1OC1CCOCC1)N=C(c1c(F)cccc1C(F)(F)F)Nc1c[nH]nc1-2 [Compound 223, 9-fluoro-5-(2-fluoro-6-(trifluoromethyl)phenyl)-8-((tetrahydro-2H-pyran-4-yl)oxy)-2,4-dihydrobenzo[d]pyrazolo[3,4-f][1,3]diazepine] | 10 to 100 nM | 100 to 1000 nM |
| Fc1cc2c(cc1-c1cccnn1)N=C(c1c(Cl)cccc1Cl)Nc1c[nH]nc1-2 [Compound 227, 5-(2,6-dichlorophenyl)-9-fluoro-8-(pyridazin-3-yl)-2,4-dihydrobenzo[d]pyrazolo[3,4-f][1,3]diazepine] | 10 to 100 nM | 100 to 1000 nM |
| Fc1cc2c(cc1-c1cccnn1)N=C(c1c(F)cccc1Cl)Nc1c[nH]nc1-2 [Compound 228, 5-(2-chloro-6-fluorophenyl)-9-fluoro-8-(pyridazin-3-yl)-2,4-dihydrobenzo[d]pyrazolo[3,4-f][1,3]diazepine] | < 10 nM | 10 to 100 nM |
| Fc1cc2c(cc1-c1ccnnc1)N=C(c1c(Cl)cccc1Cl)Nc1c[nH]nc1-2 [Compound 229, 5-(2,6-dichlorophenyl)-9-fluoro-8-(pyridazin-4-yl)-2,4-dihydrobenzo[d]pyrazolo[3,4-f][1,3]diazepine] | < 10 nM | 100 to 1000 nM |

More lines, now with the values ahead:

| IC50 [1] | IC50 [2] | Compound |
| --- | --- | --- |
| 10 to 100 nM | 10 to 100 nM | Fc1cccc(Cl)c1C1=Nc2cnc(Cl)cc2-c2n[nH]cc2N1 [Compound 190, 9-chloro-5-(2-chloro-6-fluorophenyl)-2,4-dihydropyrazolo[4,3-d]pyrido[4,3-f][1,3]diazepine] |
| 10 to 100 nM | 10 to 100 nM | Fc1cccc(F)c1C1=Nc2cnc(OC(F)F)cc2-c2n[nH]cc2N1 [Compound 197, 9-(difluoromethoxy)-5-(2,6-difluorophenyl)-2,4-dihydropyrazolo[4,3-d]pyrido[4,3-f][1,3]diazepine] |
| 10 to 100 nM | 10 to 100 nM | CCNC(=O)c1cc2c(cc1F)-c1n[nH]cc1N=C(c1c(F)cccc1F)N2 [Compound 211, 5-(2,6-difluorophenyl)-N-ethyl-9-fluoro-2,6-dihydrobenzo[d]pyrazolo[3,4-f][1,3]diazepine-8-carboxamide] |
| 10 to 100 nM | 10 to 100 nM | Nc1ncc2c(n1)N=C(c1c(F)cccc1F)Nc1c[nH]nc1-2 [Compound 218, 5-(2,6-difluorophenyl)-2,4-dihydropyrazolo[4,3-d]pyrimido[5,4-f][1,3]diazepin-8-amine] |
| 10 to 100 nM | 100 to 1000 nM | CN1CCN(c2ncc3c(n2)N=C(c2c(F)cccc2F)Nc2c[nH]nc2-3)CC1 [Compound 219] |
| 10 to 100 nM | 100 to 1000 nM | Fc1cc2c(cc1OC1CCOCC1)N=C(c1c(F)cccc1F)Nc1c[nH]nc1-2 [Compound 220, 5-(2,6-difluorophenyl)-9-fluoro-8-((tetrahydro-2H-pyran-4-yl)oxy)-2,4-dihydrobenzo[d]pyrazolo[3,4-f][1,3]diazepine] |
| < 10 nM | 100 to 1000 nM | Fc1cc2c(cc1OC1CCOCC1)N=C(c1c(F)cccc1Cl)Nc1c[nH]nc1-2 [Compound 221, 5-(2-chloro-6-fluorophenyl)-9-fluoro-8-((tetrahydro-2H-pyran-4-yl)oxy)-2,4-dihydrobenzo[d]pyrazolo[3,4-f][1,3]diazepine] |
| 10 to 100 nM | 10 to 100 nM | Fc1cc2c(cc1-c1cccnn1)N=C(c1c(F)cccc1F)Nc1c[nH]nc1-2 [Compound 225, 5-(2,6-difluorophenyl)-9-fluoro-8-(pyridazin-3-yl)-2,4-dihydrobenzo[d]pyrazolo[3,4-f][1,3]diazepine] |
| < 10 nM | < 10 nM | Fc1cc2c(cc1-c1ccnnc1)N=C(c1c(F)cccc1F)Nc1c[nH]nc1-2 [Compound 226, 5-(2,6-difluorophenyl)-9-fluoro-8-(pyridazin-4-yl)-2,4-dihydrobenzo[d]pyrazolo[3,4-f][1,3]diazepine] |
| < 10 nM | 10 to 100 nM | Fc1cc2c(cc1-c1ccnnc1)N=C(c1c(F)cccc1Cl)Nc1c[nH]nc1-2 [Compound 230, 5-(2-chloro-6-fluorophenyl)-9-fluoro-8-(pyridazin-4-yl)-2,4-dihydrobenzo[d]pyrazolo[3,4-f][1,3]diazepine] |

Reference: patent publication US20220380374A1, “1,4-DIHYDROBENZO[D]PYRAZOLO[3,4-F][1,3]DIAZEPINE DERIVATIVES AND RELATED COMPOUNDS AS LRRK2, NUAK1 AND/OR TYK2 KINASE MODULATORS FOR THE TREATMENT OF E.G. AUTOIMMUNE DISEASE” (Origenis GMBH, priority 2019, published 2022)
